Experimental data: patent publication US20230041996A1, “CALCIUM-SENSING RECEPTOR AGONIST COMPOUND AND APPLICATION THEREOF” (BEIJING TUO JIE BIOPHARMACEUTICAL CO. LTD., priority 2019, published 2023)
Like-named read-outs stand apart in the source and are kept apart here. Square brackets hold non-standard residues; d marks the D form. Peptide text beside a SMILES is read from it. * marks the point of attachment. Cys(free,S-linked) = N[C@@H](CS*)C(=O)O; d2Thi = N[C@H](Cc1cccs1)C(=O)O; dAbu = CC[C@@H](N)C(=O)O

Legend:
Assay type in all cases: cell-based
[1] = molecular target: T1, human calcium-sensing receptor (CaSR) (Homo sapiens, UniProt P41180); test: Agonist activity on human calcium-sensing receptor (IP-One HTRF in stably transfected HEK293/CaSR cells)
T1 construct: host or cells: HEK293
T1 sequence (P41180 20-1078): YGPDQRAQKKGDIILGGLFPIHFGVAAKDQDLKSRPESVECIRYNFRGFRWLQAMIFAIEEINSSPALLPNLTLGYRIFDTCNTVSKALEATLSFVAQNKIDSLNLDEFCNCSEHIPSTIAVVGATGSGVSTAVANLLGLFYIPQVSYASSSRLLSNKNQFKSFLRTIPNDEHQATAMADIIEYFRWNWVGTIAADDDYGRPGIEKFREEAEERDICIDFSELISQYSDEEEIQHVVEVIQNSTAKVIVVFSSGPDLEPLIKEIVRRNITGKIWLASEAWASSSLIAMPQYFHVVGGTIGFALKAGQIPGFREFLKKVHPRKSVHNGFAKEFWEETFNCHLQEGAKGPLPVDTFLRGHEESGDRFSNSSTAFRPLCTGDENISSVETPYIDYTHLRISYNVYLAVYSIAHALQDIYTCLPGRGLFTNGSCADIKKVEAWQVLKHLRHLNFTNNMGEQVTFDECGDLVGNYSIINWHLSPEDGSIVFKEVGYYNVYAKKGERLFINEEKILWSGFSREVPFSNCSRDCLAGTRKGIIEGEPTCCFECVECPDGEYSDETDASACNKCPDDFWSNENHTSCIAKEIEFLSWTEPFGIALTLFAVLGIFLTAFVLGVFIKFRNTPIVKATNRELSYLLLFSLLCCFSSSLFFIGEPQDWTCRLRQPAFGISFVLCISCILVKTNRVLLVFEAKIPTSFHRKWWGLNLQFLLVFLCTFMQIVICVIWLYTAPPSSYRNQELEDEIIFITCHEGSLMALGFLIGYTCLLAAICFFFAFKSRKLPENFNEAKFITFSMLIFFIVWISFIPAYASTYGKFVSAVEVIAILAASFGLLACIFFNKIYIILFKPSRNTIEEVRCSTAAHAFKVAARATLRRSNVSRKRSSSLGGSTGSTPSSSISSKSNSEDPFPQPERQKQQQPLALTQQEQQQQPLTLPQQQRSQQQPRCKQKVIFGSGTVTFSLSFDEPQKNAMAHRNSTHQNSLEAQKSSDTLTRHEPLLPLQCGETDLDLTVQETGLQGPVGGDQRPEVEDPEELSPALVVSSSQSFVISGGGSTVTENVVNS
How it was run: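 HEK293 cells stably expressing CaSR stimulated 60 min at 37 °C with compounds in buffer containing 1.2 mM CaCl2, 0.5 mM MgCl2 and 50 mM LiCl. IP-One accumulation measured by HTRF (665/620 nm ratio); EC50 from four-parameter fit.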

[2] = tested on: rat peritoneal mast cells; test: In vitro histamine release in rat peritoneal mast cells (histamine ELISA); settings: for Relative fold of histamine release in vitro: test compound final concentration 10 μM, 15 min at 37° C., relative to PBS buffer (1.00); for histamine release levels in rat peritoneal mast cells in vitro relative to etelcalcetide: 10 μM, comparison with etelcalcetide
How it was run: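 Rat peritoneal mast cells, washed into HBSS + 25 mM HEPES + 1 mM CaCl2 (pH 7.4), were exposed to test compounds at 10 μM final, 48/80 at 4 μg/mL or vehicle for 15 min at 37° C. Histamine released into the supernatant was quantified by ELISA.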

[3] = tested on: human red blood cells; test: Hemolytic effect on human red blood cells in vitro (absorbance at 540 nm); settings: 100 μg/mL in PBS, 37° C., 1 h, FIG. 1
Description: To evaluate the hemolytic effect of the compounds disclosed herein on red blood cells in vitro, human whole blood (100 μL) was taken and mixed with a phosphate buffer. The mixture was centrifuged at 4° C. for 10 min and the supernatant was discarded. The red blood cells were resuspended in PBS buffer (900 μL) and centrifuged at 4° C. for 10 min with the supernatant discarded, and the procedures above were repeated once. The test example compounds were dissolved in 1×PBS buffer to a final concentration of 100 μg/mL. The red blood cells were resuspended in solutions of various test example compounds, an octylphenoxy poly(ethyleneoxy)ethanol-100 solution or PBS buffer, and incubated at 37° C. for 1 h. After incubation, the cells were centrifuged at 4° C. for 10 min and the supernatant (100 μL) was pipetted and transferred to a 96-well plate. The absorbance at 540 nm was detected for evaluating the hemolytic effect of the test example compounds on red blood cells in vitro.

[4] = HEK293/CaSR cells, IP-One production, 60 min at 37° C., CaCl2 1.2 mM, read-out: EC50 for calcium-sensing receptor

Row | SMILES | EC50 [1, 4] | Relative fold of histamine release in vitro [2] | hemolytic effect on red blood cells [3] | EC50 [1] | histamine release levels in rat peritoneal mast cells in vitro relative to etelcalcetide [2]
1 | CC(=O)N[C@H](CSSC[C@H](N)C(=O)O)C(=O)N[C@H](CCCNC(=N)N)C(=O)N[C@H](CCCNC(=N)N)C(=O)N[C@H](Cc1cccs1)C(=O)N[C@H](CCCNC(=N)N)C(=O)N[C@H](C)C(=O)N[C@H](CCCNC(=N)N)C(N)=O [Compound 13, Ac-c(C)-r-r-(D-2-Thi)-r-a-r-NH2] (Ac-[dC](Cys(free,S-linked))[dR][dR][d2Thi][dR][dA][dR]-NH2) | 1.21 µM | 2.38 | no significant hemolytic effect |  | 
2 | CC[C@@H](NC(=O)[C@@H](CCCNC(=N)N)NC(=O)[C@@H](CCCNC(=N)N)NC(=O)[C@@H](CSSC[C@H](N)C(=O)O)NC(C)=O)C(=O)N[C@H](CCCNC(=N)N)C(=O)N[C@H](C)C(=O)N[C@H](CCCNC(=N)N)C(N)=O [Compound 17, Ac-c(C)-r-r-(D-Abu)-r-a-r-NH2] (Ac-[dC](Cys(free,S-linked))[dR][dR][dAbu][dR][dA][dR]-NH2) |  | 0.97 | no significant hemolytic effect | 6.28 µM | reduction in histamine release levels
3 | CC[C@@H](NC(=O)[C@@H](CCCNC(=N)N)NC(=O)[C@@H](CCCNC(=N)N)NC(=O)[C@@H](CSSC[C@H](N)C(=O)O)NC(C)=O)C(=O)N[C@H](CCCNC(=N)N)C(=O)N[C@H](CO)C(=O)N[C@H](CCCNC(=N)N)C(N)=O [Compound 31, Ac-c(C)-r-r-(D-Abu)-r-s-r-NH2] (Ac-[dC](Cys(free,S-linked))[dR][dR][dAbu][dR][dS][dR]-NH2) | 5.93 µM | 1.29 | no significant hemolytic effect |  | reduction in histamine release levels
